From paper PMC9290507, “Rh^II‐Catalyzed De‐symmetrization of Ethane‐1,2‐dithiol and Propane‐1,3‐dithiol Yields Metallo‐β‐lactamase Inhibitors” (Chemmedchem, 2021)

How the values were obtained:
E. coli NDM‐1 (T2359) [1] = experiment: Checkerboard synergy assay with imipenem, E. coli NDM-1; assay type: cell-based; conditions: for Imipenem MIC: E. coli NDM-1 (T2359); for Reduction of the MIC of imipenem: NDM-1 producing bacteria, maximal reduction
Procedure: (§1) To investigate this, the MIC of imipenem or combined with various concentrations of compound 3a, 3o, or 3 s was determined against E. coli transformants producing NDM‐1 or VIM‐1 (Table 3 and 4).
(§2) Minimal inhibitory concentrations (MICs) of imipenem monohydrate (Sigma‐Aldrich)±compound 3 a, 3 o, or 3 s against transformed E. coli strains producing NDM‐1 or VIM‐1 were determined according to microdilution method established by Clinical and Laboratory Standards Institute (CLSI).^20 The checkerboard assay was performed to test for synergy in vitro. The microtiter‐plates were set up with serial doubling dilutions of compound 3 a, 3 o, or 3 s (2‐128 mg/L) and imipenem (0.125‐128 mg/L).

NDM‐1 = target: T1, NDM‐1 (Klebsiella pneumoniae, UniProt C7C422); experiment: Fluorescence-based enzyme activity assay (Fluorocillin), NDM-1; assay type: biochemical; conditions: for Effect of added zinc ions on inhibitory activity (NDM-1): 10 μM compound, additional 100 μM ZnCl2 in assay buffer
T1 construct: made in house
Procedure: (§3) In order to investigate the structure‐activity relationships of the dithiol library, we measured the inhibitory activity of 3 a–x in a fluorescence‐based enzyme activity assay (Table 1). Two relevant β‐lactamase isoforms, NDM‐1 and VIM‐1 were selected for in vitro assays. The fluorogenic substrate fluorocillin[15] was prepared according to literature and its conversion was monitored as described previously.[6] In general, a linear relationship between the potency of 3 a–x towards both enzymes could be observed, however, inhibitory potency towards VIM‐1 was almost tenfold higher (Figure 3). A very clear preference for the propane‐1,3‐dithiol over ethane‐1,2‐dithiol compounds could be observed from matched molecular pairs.
(§4) Activity assays for MBLs were performed at room temperature in black polystyrol 96well plates (Corning, Corning, NY, USA) using dicefalotinodifluorofluorescein (Fluorocillin) as a substrate. Proteins were diluted in assay buffer (HEPES 50 mM, pH 7.5 containing 0.01 %Triton X‐100), with final protein concentrations of NDM‐1: 3 nM, or VIM‐1: 4 nM. Samples were supplemented with an equimolar amount of ZnCl2. An amount of 1 μL of compounds 3 a–3 x at different concentrations was incubated with 89 μL of enzyme in assay buffer. After an incubation period of 30 min at room temperature, 10 μL of Fluorocillin substrate was added to yield the final assay volume of 100 μL. Final concentration of DMSO was 1 %. The fluorescence emitted by the fluorescent product difluorofluorescein was monitored every 45 s for 30 cycles using a Tecan fluorescent plate reader (Infinite 200; excitation at 495 nm and emission at 525 nm) and was compared with a standard curve. The rate of the enzymatic reaction was obtained by dividing the quantity of the fluorescent product (RFU) by time (min). Negative controls were measured in the absence of enzyme, whereas the positive controls were measured in the presence of enzyme and in the absence of inhibitors. The inhibitory effect of each substance was measured in triplicate in three independent experiments. IC50 values were calculated using data obtained from measurements with at least eight different inhibitor concentrations, applying a sigmoidal dose–response (variable slope with four parameters) equation using GraphPad Prism 5 (GraphPad Software, La Jolla, CA, USA) software. In order to investigate the inhibitory activity of 3 a, 3 o, or 3 s in the presence of a high Zn^2+ concentration, assay buffer containing an additional 100 μM ZnCl2 was used. The assay was performed as described above with NDM‐1 or VIM‐1 and 10 μM of 3 a, 3 o, or 3 s.

VIM‐1 = target: T2, VIM‐1 (Pseudomonas aeruginosa, UniProt A0A0F7KYQ8); experiment: Fluorescence-based enzyme activity assay (Fluorocillin), VIM-1; assay type: biochemical; conditions: for Effect of added zinc ions on inhibitory activity (VIM-1): 10 μM compound, additional 100 μM ZnCl2 in assay buffer
T2 construct: made in house
Procedure: as §3, §4

E. coli VIM‐1 (T2544) [2] = experiment: Intrinsic antimicrobial activity (MIC, CLSI microdilution), E. coli VIM-1; assay type: cell-based; conditions: Escherichia coli
Procedure: as §2

E. coli VIM‐1 (T2544) [3] = experiment: Checkerboard synergy assay with imipenem, E. coli VIM-1; assay type: cell-based; conditions: for Imipenem MIC: E. coli VIM-1 (T2544); for Reduction of the MIC of imipenem: VIM-1 producing bacteria, maximal reduction
Procedure: as §1, §2

E. coli NDM‐1 (T2359) [4] = experiment: Intrinsic antimicrobial activity (MIC, CLSI microdilution), E. coli NDM-1; assay type: cell-based; conditions: for MIC: Escherichia coli; for Intrinsic antimicrobial activity: compound alone, E. coli transformants producing NDM-1 or VIM-1 (Table 2)
Procedure: as §2

VIM‐2 = target: T3, VIM‐2 (Escherichia coli, UniProt Q5U7L7); experiment: Kd determination using isothermal titration calorimetry; assay type: binding; conditions: ITC, 250 μM compound into 50 μM VIM-2, 25 °C
T3 construct: made in house
Procedure: The next step was the investigation of the binding thermodynamics of 3 a, 3 o, and 3 s. For these experiments we used a closely related enzyme VIM‐2 which is an isoform of VIM‐1 and can be recombinantly expressed in very high concentrations, suitable tor isothermal titration calorimetry (ITC) experiments (Figure 6).
VIM‐2 expression and purification was published elsewhere.[19] Before the measurement the VIM‐2 protein was dialyzed against 500 times the volume of buffer (50 mM Tris, 500 mM NaCl, 5 % (v/v) glycerol with a pH=8) using a dialysis membrane with a 3.5 kDa MWCO. For the measurements the compounds 3 a, 3 o, or 3 s, respectively, were diluted using the dialyses buffer to a final concentration of 250 μM containing a final DMSO concentration of 1 %. The VIM‐2 protein was diluted to a final concentration of 50 μM, supplemented with 1 % DMSO using the dialysis buffer and pure DMSO. For the control measurements dialysis buffer was supplemented with pure DMSO to a final concentration of 1 %. The measurements were performed using an “Affinity ITC” (TA‐Instruments) in reversed mode, with a stir rate of 75 rpm and a temperature of 25 °C. The VIM‐2 was placed in the cell and the respective compound in the syringe. For blank measurements either the protein or compound dilution were exchanged with buffer containing 1 % DMSO. For the measurements of 3 a and 3 s one time 0.5 μl was injected followed by 50 injections of 2 μl with a spacing of 240 s. 3 o was measured with one injection of 0.5 μl followed by 35 injections of 2 μl with a spacing of 240 s. The data were analyzed using the “NanoAnalyze Data Analysis” software (version 3.10.0; TA‐Instruments).

T1 sequence (C7C422 29-270, looked up, species assumed): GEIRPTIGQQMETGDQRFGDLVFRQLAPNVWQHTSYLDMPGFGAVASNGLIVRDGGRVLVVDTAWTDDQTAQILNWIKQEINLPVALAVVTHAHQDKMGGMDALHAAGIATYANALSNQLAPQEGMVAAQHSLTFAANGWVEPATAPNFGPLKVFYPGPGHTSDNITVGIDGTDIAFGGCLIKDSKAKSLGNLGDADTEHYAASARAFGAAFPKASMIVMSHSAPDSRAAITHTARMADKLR

O=C1CCCC1SCCCS (stereo not shown) [3 a, 2‐((3‐Mercaptopropyl)thio)cyclopentanone]
Imipenem MIC (E. coli NDM‐1 (T2359) [1]; +2 μg/ml compound): 128 µg/mL | Imipenem MIC (E. coli NDM‐1 (T2359) [1]; +4 μg/ml compound): 128 µg/mL | Imipenem MIC (E. coli NDM‐1 (T2359) [1]; +8 μg/ml compound): 128 µg/mL | Imipenem MIC (E. coli NDM‐1 (T2359) [1]; +16 μg/ml compound): 64 µg/mL | Imipenem MIC (E. coli NDM‐1 (T2359) [1]; +32 μg/ml compound): 64 µg/mL | Imipenem MIC (E. coli NDM‐1 (T2359) [1]; +64 μg/ml compound): 64 µg/mL | Imipenem MIC (E. coli NDM‐1 (T2359) [1]; +128 μg/ml compound): 32 µg/mL | IC50 (NDM‐1): 480 ± 70 nM | Effect of added zinc ions on inhibitory activity (NDM-1) (NDM‐1): does not impair the inhibitory activity | IC50 (VIM‐1): 170 ± 40 nM | Effect of added zinc ions on inhibitory activity (VIM-1) (VIM‐1): does not impair the inhibitory activity | MIC (E. coli VIM‐1 (T2544) [2]): > 512 µg/mL | Imipenem MIC (E. coli VIM‐1 (T2544) [3]; +2 μg/ml compound): 32 µg/mL | Imipenem MIC (E. coli VIM‐1 (T2544) [3]; +4 μg/ml compound): 32 µg/mL | Imipenem MIC (E. coli VIM‐1 (T2544) [3]; +8 μg/ml compound): 16 µg/mL | Imipenem MIC (E. coli VIM‐1 (T2544) [3]; +16 μg/ml compound): 16 µg/mL | Imipenem MIC (E. coli VIM‐1 (T2544) [3]; +32 μg/ml compound): 16 µg/mL | Imipenem MIC (E. coli VIM‐1 (T2544) [3]; +64 μg/ml compound): 16 µg/mL | Imipenem MIC (E. coli VIM‐1 (T2544) [3]; +128 μg/ml compound): 8 µg/mL | MIC (E. coli NDM‐1 (T2359) [4]): > 512 µg/mL | Intrinsic antimicrobial activity (E. coli NDM‐1 (T2359) [4]): no intrinsic antimicrobial activity | Kd (VIM‐2): 880 nM | Kd (VIM‐2; inset of Figure 6): 878 nM

O=C1C(SCCCS)CCN1c1ccccc1 (stereo not shown) [3 o, 3‐((3‐Mercaptopropyl)thio)‐1‐phenylpyrrolidin‐2‐one]
Imipenem MIC (E. coli NDM‐1 (T2359) [1]; +2 μg/ml compound): 128 µg/mL | Imipenem MIC (E. coli NDM‐1 (T2359) [1]; +4 μg/ml compound): 128 µg/mL | Imipenem MIC (E. coli NDM‐1 (T2359) [1]; +8 μg/ml compound): 128 µg/mL | Imipenem MIC (E. coli NDM‐1 (T2359) [1]; +16 μg/ml compound): 128 µg/mL | Imipenem MIC (E. coli NDM‐1 (T2359) [1]; +32 μg/ml compound): 32 µg/mL | Imipenem MIC (E. coli NDM‐1 (T2359) [1]; +64 μg/ml compound): 32 µg/mL | Imipenem MIC (E. coli NDM‐1 (T2359) [1]; +128 μg/ml compound): 16 µg/mL | Reduction of the MIC of imipenem (E. coli NDM‐1 (T2359) [1]): up to 8 fold | IC50 (NDM‐1): 300 ± 40 nM | Effect of added zinc ions on inhibitory activity (NDM-1) (NDM‐1): does not impair the inhibitory activity | IC50 (VIM‐1): 20 nM | Effect of added zinc ions on inhibitory activity (VIM-1) (VIM‐1): does not impair the inhibitory activity | MIC (E. coli VIM‐1 (T2544) [2]): > 512 µg/mL | Imipenem MIC (E. coli VIM‐1 (T2544) [3]; +2 μg/ml compound): 16 µg/mL | Imipenem MIC (E. coli VIM‐1 (T2544) [3]; +4 μg/ml compound): 16 µg/mL | Imipenem MIC (E. coli VIM‐1 (T2544) [3]; +8 μg/ml compound): 16 µg/mL | Imipenem MIC (E. coli VIM‐1 (T2544) [3]; +16 μg/ml compound): 16 µg/mL | Imipenem MIC (E. coli VIM‐1 (T2544) [3]; +32 μg/ml compound): 8 µg/mL | Imipenem MIC (E. coli VIM‐1 (T2544) [3]; +64 μg/ml compound): 2 µg/mL | Imipenem MIC (E. coli VIM‐1 (T2544) [3]; +128 μg/ml compound): 1 µg/mL | Reduction of the MIC of imipenem (E. coli VIM‐1 (T2544) [3]): ≤ 32 fold | MIC (E. coli NDM‐1 (T2359) [4]): > 512 µg/mL | Intrinsic antimicrobial activity (E. coli NDM‐1 (T2359) [4]): no intrinsic antimicrobial activity | ΔH (VIM‐2): -11.7 kcal/mol | Kd (VIM‐2; inset of Figure 6): 534 nM

O=C1C(SCCCS)CCN1c1nccs1 (stereo not shown) [3 s, 3‐((3‐Mercaptopropyl)thio)‐1‐(thiazol‐2‐yl)pyrrolidin‐2‐one]
Imipenem MIC (E. coli NDM‐1 (T2359) [1]; +2 μg/ml compound): 128 µg/mL | Imipenem MIC (E. coli NDM‐1 (T2359) [1]; +4 μg/ml compound): 128 µg/mL | Imipenem MIC (E. coli NDM‐1 (T2359) [1]; +8 μg/ml compound): 64 µg/mL | Imipenem MIC (E. coli NDM‐1 (T2359) [1]; +16 μg/ml compound): 64 µg/mL | Imipenem MIC (E. coli NDM‐1 (T2359) [1]; +32 μg/ml compound): 64 µg/mL | Imipenem MIC (E. coli NDM‐1 (T2359) [1]; +64 μg/ml compound): 32 µg/mL | Imipenem MIC (E. coli NDM‐1 (T2359) [1]; +128 μg/ml compound): 16 µg/mL | Reduction of the MIC of imipenem (E. coli NDM‐1 (T2359) [1]): up to 8 fold | IC50 (NDM‐1): 390 ± 50 nM | Effect of added zinc ions on inhibitory activity (NDM-1) (NDM‐1): does not impair the inhibitory activity | IC50 (VIM‐1): 40 ± 10 nM | Effect of added zinc ions on inhibitory activity (VIM-1) (VIM‐1): does not impair the inhibitory activity | MIC (E. coli VIM‐1 (T2544) [2]): > 512 µg/mL | Imipenem MIC (E. coli VIM‐1 (T2544) [3]; +2 μg/ml compound): 32 µg/mL | Imipenem MIC (E. coli VIM‐1 (T2544) [3]; +4 μg/ml compound): 16 µg/mL | Imipenem MIC (E. coli VIM‐1 (T2544) [3]; +8 μg/ml compound): 16 µg/mL | Imipenem MIC (E. coli VIM‐1 (T2544) [3]; +16 μg/ml compound): 16 µg/mL | Imipenem MIC (E. coli VIM‐1 (T2544) [3]; +32 μg/ml compound): 8 µg/mL | Imipenem MIC (E. coli VIM‐1 (T2544) [3]; +64 μg/ml compound): 4 µg/mL | Imipenem MIC (E. coli VIM‐1 (T2544) [3]; +128 μg/ml compound): 2 µg/mL | Reduction of the MIC of imipenem (E. coli VIM‐1 (T2544) [3]): ≤ 32 fold | MIC (E. coli NDM‐1 (T2359) [4]): > 512 µg/mL | Intrinsic antimicrobial activity (E. coli NDM‐1 (T2359) [4]): no intrinsic antimicrobial activity | ΔH (VIM‐2): -6.45 kcal/mol | Kd (VIM‐2; inset of Figure 6): 166 nM
